The values below come from ChEMBL document CHEMBL1201862, “PubChem BioAssay data set” (2004).

Test systems include NCI-H226; Hs-578T; HL-60; PC-3; SK-MEL-28; SNB-19; HOP-92; SNB-75; U-251; A498; NCI-H23; A549; K562; 786-0; MDA-N; Malme-3M; UACC-257; RPMI-8226; UACC-62; NCI-H522.
Common to all, as to test: NCI-60 cell line screen, 48 h

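Results reflect a 48-hour exposure of cells in 96-well plates to compound at five concentrations. GI50: concentration for 50% inhibition of growth.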 Activity calls are given as the source filed them. Cut-off read from the data, not from the text of the source: active = GI50 up to about 1.1 µM and inactive = higher.

As for `CC(C)(C)c1cc(C(C)(C)C)c(SC2OC(CO)C(O)C(O)C2O)c(O)c1O` (stereo not given), the GI50 with NCI-H226 is 12.3 µM (inactive); in the assay with Hs-578T, 3.22 µM (inactive); in the assay with HL-60, 3.27 µM (inactive); in the assay on PC-3, 9.18 µM (inactive); in the assay with SK-MEL-28 it was 15.6 µM (inactive); in the assay on SNB-19, 8.02 µM (inactive). Also, the GI50 was 11.6 µM (inactive) in the assay on HOP-92; 1.55 µM (inactive) in the assay on SNB-75; 7.43 µM (inactive) in the assay on U-251; 14.7 µM (inactive) in the assay with A498; 4.42 µM (inactive) with NCI-H23; 3.84 µM (inactive) in the assay on A549. For the same compound, the GI50 with K562 was 2.93 µM (inactive); with 786-0, 12.7 µM (inactive); in the assay on MDA-N, 4.12 µM (inactive); in the assay on Malme-3M, 12.6 µM (inactive); in the assay on UACC-257, 20.9 µM (inactive); with RPMI-8226, 15.1 µM (inactive). Also, the results for the GI50 with UACC-62 and in the assay with NCI-H522 were 2.2 µM (inactive) and 7.21 µM (inactive), respectively.

As for `c1ccc2sc(SSSc3nc4ccccc4s3)nc2c1`, the GI50 in the assay on NCI-H226 is > 100 µM (inactive); in the assay on Hs-578T, > 100 µM (inactive); in the assay on HL-60 it was 49.2 µM (inactive); with PC-3, > 100 µM (inactive); with SK-MEL-28, > 100 µM (inactive); in the assay on SNB-19, > 100 µM (inactive). For the same compound, the GI50 in the assay on HOP-92, with SNB-75, in the assay on U-251, in the assay with A498, in the assay with NCI-H23 and in the assay on A549 was > 100 µM (inactive) each time. Moreover, the GI50 was > 100 µM (inactive) in the assay on K562; 44.4 µM (inactive) in the assay on 786-0; > 100 µM (inactive) in the assay with MDA-N; > 100 µM (inactive) with Malme-3M; 49.8 µM (inactive) in the assay with UACC-257; > 100 µM (inactive) in the assay with RPMI-8226. The GI50 in the assay on UACC-62 was > 100 µM (inactive); with NCI-H522 it was 23 µM (inactive).

As to `Oc1cccc2cc(Br)cnc12`, the GI50 in the assay on NCI-H226 is 27.5 µM (inactive); with Hs-578T it was 27.9 µM (inactive); in the assay on HL-60 it was 1.05 µM (active); in the assay with PC-3, 6.68 µM (inactive); in the assay with SK-MEL-28, 49.2 µM (inactive); in the assay with SNB-19 it was > 39.4 µM (inactive). In addition, the GI50 in the assay on HOP-92 was 16 µM (inactive); in the assay on SNB-75, 18 µM (inactive); in the assay with U-251 it was 8.32 µM (inactive); with A498, 27.5 µM (inactive); in the assay with NCI-H23, 5.92 µM (inactive); in the assay on A549, 5.97 µM (inactive). The GI50 with K562 was 3.21 µM (inactive); in the assay on 786-0 it was 31 µM (inactive); in the assay with MDA-N, 21.7 µM (inactive); with Malme-3M it was 7.96 µM (inactive); in the assay with UACC-257, 4.78 µM (inactive); in the assay on RPMI-8226 it was 3.49 µM (inactive). The GI50 in the assay with UACC-62 was 5.96 µM (inactive); in the assay with NCI-H522 it was 2.49 µM (inactive).

`O=c1c(Cc2cccc(Cc3c(O)oc4ccccc4c3=O)c2)c(O)oc2ccccc12`: the GI50 in the assay on NCI-H226, in the assay on Hs-578T, with HL-60, in the assay with PC-3, in the assay on SK-MEL-28 and in the assay with SNB-19 was > 100 µM (inactive) throughout. Further, the GI50 with HOP-92 was > 100 µM (inactive); in the assay on SNB-75 it was 43 µM (inactive); in the assay with U-251, > 100 µM (inactive); with A498 it was > 100 µM (inactive); in the assay on NCI-H23, > 100 µM (inactive); in the assay on A549 it was > 100 µM (inactive). Also, the GI50 with K562, in the assay on 786-0, in the assay on MDA-N, in the assay on Malme-3M, in the assay on UACC-257 and in the assay on RPMI-8226 was > 100 µM (inactive) throughout. The GI50 with UACC-62 and in the assay on NCI-H522 was > 100 µM (inactive) in each case.
